Measurements as given in ChEMBL document CHEMBL5696443 (Clin Cancer Res, 2016).
The source made the active and inactive calls. The calls are words filed in the database; no cut-off is given here.

Columns and labels:
[1] = target: Casein kinase I isoform delta (Homo sapiens) (UniProt P48730); experiment: Inhibition of human CK1delta at 1 uM using KRRRAL[pS]VASLPGL as substrate in presence of [gamma33P]-ATP by HotSpot assay relative to control
Insulin receptor = Insulin receptor (Homo sapiens, UniProt P06213); experiment: Inhibition of human INSR using poly (Glu, Tyr)4:1 as substrate in presence of [gamma33P]-ATP by HotSpot assay
Chain of Insulin receptor (P06213 28-758 limits assumed): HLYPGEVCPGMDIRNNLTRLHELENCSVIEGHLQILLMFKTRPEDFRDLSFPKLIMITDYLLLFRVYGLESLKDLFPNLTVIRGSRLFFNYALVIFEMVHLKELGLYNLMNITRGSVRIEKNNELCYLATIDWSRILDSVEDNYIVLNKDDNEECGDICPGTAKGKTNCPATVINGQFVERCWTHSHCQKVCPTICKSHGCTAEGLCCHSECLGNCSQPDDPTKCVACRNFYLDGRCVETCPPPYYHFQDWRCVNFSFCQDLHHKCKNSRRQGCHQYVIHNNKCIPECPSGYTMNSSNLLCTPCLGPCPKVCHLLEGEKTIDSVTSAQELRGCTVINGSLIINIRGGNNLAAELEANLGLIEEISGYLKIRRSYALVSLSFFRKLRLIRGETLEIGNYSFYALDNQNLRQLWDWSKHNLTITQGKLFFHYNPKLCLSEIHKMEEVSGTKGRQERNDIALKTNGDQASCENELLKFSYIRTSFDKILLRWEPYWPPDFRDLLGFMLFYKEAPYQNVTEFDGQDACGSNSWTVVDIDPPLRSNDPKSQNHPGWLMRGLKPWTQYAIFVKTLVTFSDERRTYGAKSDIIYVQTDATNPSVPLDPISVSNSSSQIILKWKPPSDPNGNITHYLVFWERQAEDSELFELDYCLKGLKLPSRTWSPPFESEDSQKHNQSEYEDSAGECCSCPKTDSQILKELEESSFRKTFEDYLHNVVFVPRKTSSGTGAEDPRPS
Chain of Insulin receptor (P06213 763-1382 limits assumed): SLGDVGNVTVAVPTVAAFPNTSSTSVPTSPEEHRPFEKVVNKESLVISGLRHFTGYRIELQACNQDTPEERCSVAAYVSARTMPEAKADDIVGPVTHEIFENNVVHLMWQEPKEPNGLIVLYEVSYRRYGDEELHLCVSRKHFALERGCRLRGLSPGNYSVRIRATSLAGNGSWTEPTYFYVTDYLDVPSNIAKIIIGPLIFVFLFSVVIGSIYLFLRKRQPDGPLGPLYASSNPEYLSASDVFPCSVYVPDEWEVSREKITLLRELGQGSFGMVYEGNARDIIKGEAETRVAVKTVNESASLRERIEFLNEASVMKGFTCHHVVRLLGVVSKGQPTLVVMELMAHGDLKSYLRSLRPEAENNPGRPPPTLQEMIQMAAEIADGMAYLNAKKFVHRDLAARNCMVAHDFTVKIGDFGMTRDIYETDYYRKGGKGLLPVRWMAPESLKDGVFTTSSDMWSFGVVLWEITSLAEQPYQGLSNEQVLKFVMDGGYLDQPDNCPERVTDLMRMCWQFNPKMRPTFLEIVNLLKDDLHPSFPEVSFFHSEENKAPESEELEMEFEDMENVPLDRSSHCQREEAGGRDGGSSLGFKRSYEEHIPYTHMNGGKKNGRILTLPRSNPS

[2] = target: Protein-tyrosine kinase 2-beta (Homo sapiens, UniProt Q14289); experiment: Inhibition of human PTK2B using poly (Glu, Tyr)4:1 as substrate in presence of [gamma33P]-ATP by HotSpot assay
Chain of Protein-tyrosine kinase 2-beta (Q14289 whole entry): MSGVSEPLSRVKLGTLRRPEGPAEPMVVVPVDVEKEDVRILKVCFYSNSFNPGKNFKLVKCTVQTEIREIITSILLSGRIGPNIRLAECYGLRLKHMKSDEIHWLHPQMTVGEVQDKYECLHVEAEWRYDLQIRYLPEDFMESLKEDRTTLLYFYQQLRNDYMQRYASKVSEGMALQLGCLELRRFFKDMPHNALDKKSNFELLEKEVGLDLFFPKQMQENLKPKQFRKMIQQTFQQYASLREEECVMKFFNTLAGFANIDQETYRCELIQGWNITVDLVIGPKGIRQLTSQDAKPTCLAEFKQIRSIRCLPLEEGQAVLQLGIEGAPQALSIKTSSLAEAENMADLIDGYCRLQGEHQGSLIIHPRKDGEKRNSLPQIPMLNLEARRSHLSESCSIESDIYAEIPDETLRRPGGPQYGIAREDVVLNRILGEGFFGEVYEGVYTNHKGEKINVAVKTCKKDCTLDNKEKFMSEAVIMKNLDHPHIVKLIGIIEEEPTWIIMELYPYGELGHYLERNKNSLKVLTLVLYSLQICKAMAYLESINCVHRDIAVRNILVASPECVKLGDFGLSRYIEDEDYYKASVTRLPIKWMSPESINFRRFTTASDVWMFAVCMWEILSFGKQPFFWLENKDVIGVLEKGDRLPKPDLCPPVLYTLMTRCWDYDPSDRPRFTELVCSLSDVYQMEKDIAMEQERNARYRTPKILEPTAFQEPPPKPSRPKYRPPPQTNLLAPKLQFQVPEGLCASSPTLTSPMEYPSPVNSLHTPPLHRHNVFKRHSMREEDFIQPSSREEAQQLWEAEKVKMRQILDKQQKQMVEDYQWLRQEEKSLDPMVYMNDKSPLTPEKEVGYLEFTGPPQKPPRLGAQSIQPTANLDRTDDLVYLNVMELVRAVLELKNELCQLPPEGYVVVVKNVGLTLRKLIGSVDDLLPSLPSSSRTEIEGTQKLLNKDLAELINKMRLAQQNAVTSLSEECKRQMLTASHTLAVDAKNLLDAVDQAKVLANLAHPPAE

[3] = target: MAP kinase-interacting serine/threonine-protein kinase 1 (Homo sapiens, UniProt Q9BUB5, T385D); experiment: Inhibition of human MNK1 T385D mutant using MBP as substrate in presence of [gamma33P]-ATP by HotSpot assay
Chain of MAP kinase-interacting serine/threonine-protein kinase 1 (Q9BUB5 whole entry T385D): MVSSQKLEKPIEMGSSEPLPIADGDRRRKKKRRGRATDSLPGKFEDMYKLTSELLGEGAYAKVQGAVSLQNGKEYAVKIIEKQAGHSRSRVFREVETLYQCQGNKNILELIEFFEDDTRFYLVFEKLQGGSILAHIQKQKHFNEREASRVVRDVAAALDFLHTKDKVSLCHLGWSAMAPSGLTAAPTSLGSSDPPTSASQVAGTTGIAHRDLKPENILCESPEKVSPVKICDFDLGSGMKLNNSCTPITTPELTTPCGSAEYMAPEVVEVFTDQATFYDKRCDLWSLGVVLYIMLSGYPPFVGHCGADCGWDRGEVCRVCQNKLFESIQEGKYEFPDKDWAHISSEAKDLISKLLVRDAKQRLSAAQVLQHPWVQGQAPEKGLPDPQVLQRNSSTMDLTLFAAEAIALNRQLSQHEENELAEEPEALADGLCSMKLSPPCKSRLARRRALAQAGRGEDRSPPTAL

[4] = target: Serine/threonine-protein kinase BRSK1 (Homo sapiens, UniProt Q8TDC3); experiment: Inhibition of human BRSK1 using KKKVSRSGLYRSPSMPENLNRPR as substrate in presence of [gamma33P]-ATP by HotSpot assay
[5] = target: RAC-gamma serine/threonine-protein kinase (Homo sapiens) (UniProt Q9Y243); experiment: Inhibition of human AKT3 at 1 uM using KGSGSGRPRTSSFAEG as substrate in presence of [gamma33P]-ATP by HotSpot assay relative to control
[6] = target: Calcium/calmodulin-dependent protein kinase type IV (Homo sapiens) (UniProt Q16566); experiment: Inhibition of human CAMK4 at 1 uM using KKLNRTLSFAEPG as substrate in presence of [gamma33P]-ATP by HotSpot assay relative to control
[7] = target: Cyclin-dependent kinase 2/cyclin E1 (Homo sapiens) (UniProt P24864+P24941); experiment: Inhibition of human CDK2/CyclinE at 1 uM using RB protein as substrate in presence of [gamma33P]-ATP by HotSpot assay relative to control; type: protein-complex assay
[8] = target: Casein kinase I isoform gamma-1 (Homo sapiens) (UniProt Q9HCP0); experiment: Inhibition of human CSNK1G1 at 1 uM using KRRRAL[pS]VASLPGL as substrate in presence of [gamma33P]-ATP by HotSpot assay relative to control
[9] = target: Myotonin-protein kinase (Homo sapiens) (UniProt Q09013); experiment: Inhibition of human DMPK at 1 uM using KKRNRRLSVA as substrate in presence of [gamma33P]-ATP by HotSpot assay relative to control
Chain of Myotonin-protein kinase (Homo sapiens) (Q09013 whole entry): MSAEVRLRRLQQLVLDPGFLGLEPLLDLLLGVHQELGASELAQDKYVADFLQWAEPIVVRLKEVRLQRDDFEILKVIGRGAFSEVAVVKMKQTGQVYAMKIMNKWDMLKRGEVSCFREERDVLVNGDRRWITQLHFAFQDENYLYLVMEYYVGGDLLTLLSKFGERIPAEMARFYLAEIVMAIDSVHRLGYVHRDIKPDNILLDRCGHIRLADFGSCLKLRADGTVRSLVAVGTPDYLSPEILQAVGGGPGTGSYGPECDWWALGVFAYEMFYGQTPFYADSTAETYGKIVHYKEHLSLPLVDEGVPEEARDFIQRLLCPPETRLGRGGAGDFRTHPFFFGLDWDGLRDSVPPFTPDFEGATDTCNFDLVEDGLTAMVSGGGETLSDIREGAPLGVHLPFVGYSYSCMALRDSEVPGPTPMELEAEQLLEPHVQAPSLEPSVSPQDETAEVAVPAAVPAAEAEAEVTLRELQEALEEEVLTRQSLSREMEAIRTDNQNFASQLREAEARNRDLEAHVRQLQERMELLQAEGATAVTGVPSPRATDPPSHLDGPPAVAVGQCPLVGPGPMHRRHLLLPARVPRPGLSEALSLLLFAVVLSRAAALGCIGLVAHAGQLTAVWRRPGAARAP

[10] = target: Ephrin type-A receptor 2 (Homo sapiens) (UniProt P29317); experiment: Inhibition of human EPHA2 at 1 uM using poly (Glu, Tyr)4:1 as substrate in presence of [gamma33P]-ATP by HotSpot assay relative to control
Chain of Ephrin type-A receptor 2 (Homo sapiens) (P29317 whole entry): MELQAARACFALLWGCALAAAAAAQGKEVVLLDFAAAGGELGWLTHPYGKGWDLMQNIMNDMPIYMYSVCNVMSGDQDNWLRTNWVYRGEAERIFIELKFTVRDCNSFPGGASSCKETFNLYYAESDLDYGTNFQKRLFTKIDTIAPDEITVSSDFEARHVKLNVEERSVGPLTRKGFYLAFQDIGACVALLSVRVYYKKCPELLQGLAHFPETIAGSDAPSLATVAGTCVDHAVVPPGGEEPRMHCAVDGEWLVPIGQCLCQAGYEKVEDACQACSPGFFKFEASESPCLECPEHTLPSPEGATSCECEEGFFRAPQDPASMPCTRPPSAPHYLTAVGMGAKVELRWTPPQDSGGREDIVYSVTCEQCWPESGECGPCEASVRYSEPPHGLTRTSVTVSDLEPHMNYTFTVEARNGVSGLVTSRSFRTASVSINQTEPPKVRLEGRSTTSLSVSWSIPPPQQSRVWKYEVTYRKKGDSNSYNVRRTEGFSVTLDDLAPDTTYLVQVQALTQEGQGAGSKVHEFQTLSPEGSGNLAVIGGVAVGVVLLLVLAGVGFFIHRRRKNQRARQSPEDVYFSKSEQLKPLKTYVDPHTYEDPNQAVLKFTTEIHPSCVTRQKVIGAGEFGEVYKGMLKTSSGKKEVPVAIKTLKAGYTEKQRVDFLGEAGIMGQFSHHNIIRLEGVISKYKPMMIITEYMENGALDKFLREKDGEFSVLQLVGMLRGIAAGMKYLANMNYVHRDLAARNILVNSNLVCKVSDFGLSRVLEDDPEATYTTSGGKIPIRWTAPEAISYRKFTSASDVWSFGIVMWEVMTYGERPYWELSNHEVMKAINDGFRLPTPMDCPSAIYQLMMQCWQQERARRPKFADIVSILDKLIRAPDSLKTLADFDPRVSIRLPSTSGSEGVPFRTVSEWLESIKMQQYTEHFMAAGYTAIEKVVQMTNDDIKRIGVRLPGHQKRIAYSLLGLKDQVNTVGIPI

[11] = target: Mitogen-activated protein kinase 8 (Homo sapiens) (UniProt P45983); experiment: Inhibition of human JNK1a1 at 1 uM using ATF2 as substrate in presence of [gamma33P]-ATP by HotSpot assay relative to control
[12] = target: Dual specificity mitogen-activated protein kinase kinase 2 (Homo sapiens) (UniProt P36507); experiment: Inhibition of human MAP2K2 at 1 uM using ERK2 as substrate in presence of [gamma33P]-ATP by HotSpot assay relative to control
[13] = target: Mitogen-activated protein kinase kinase kinase kinase 4 (Homo sapiens) (UniProt O95819); experiment: Inhibition of human MAP4K4 at 1 uM using MBP as substrate in presence of [gamma33P]-ATP by HotSpot assay relative to control
[14] = target: Ribosomal protein S6 kinase beta-1 (Homo sapiens) (UniProt P23443); experiment: Inhibition of human P70S6K at 1 uM using KKRNRTLTK as substrate in presence of [gamma33P]-ATP by HotSpot assay relative to control
[15] = target: Protein kinase C epsilon type (Homo sapiens) (UniProt Q02156); experiment: Inhibition of human PKCepsilon at 1 uM using ERMRPRKRQGSVRRRV as substrate in presence of [gamma33P]-ATP by HotSpot assay relative to control
[16] = target: Protein kinase C eta type (Homo sapiens) (UniProt P24723); experiment: Inhibition of human PKCeta at 1 uM using ERMRPRKRQGSVRRRV as substrate in presence of [gamma33P]-ATP by HotSpot assay relative to control
[17] = target: cAMP-dependent protein kinase catalytic subunit PRKX (Homo sapiens) (UniProt P51817); experiment: Inhibition of human PRKX at 1 uM using LRRASLG as substrate in presence of [gamma33P]-ATP by HotSpot assay relative to control
Chain of cAMP-dependent protein kinase catalytic subunit PRKX (Homo sapiens) (P51817 whole entry): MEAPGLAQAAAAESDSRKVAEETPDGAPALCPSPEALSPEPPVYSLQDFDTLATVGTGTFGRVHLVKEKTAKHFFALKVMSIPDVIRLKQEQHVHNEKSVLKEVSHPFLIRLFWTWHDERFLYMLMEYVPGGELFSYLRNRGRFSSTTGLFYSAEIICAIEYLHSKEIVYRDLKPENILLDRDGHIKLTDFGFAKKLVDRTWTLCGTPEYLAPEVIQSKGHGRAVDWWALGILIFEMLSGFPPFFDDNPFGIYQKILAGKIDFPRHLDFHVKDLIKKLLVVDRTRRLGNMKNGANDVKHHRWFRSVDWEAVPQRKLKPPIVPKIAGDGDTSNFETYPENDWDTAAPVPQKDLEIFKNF

[18] = target: RAF proto-oncogene serine/threonine-protein kinase (Homo sapiens) (UniProt P04049); experiment: Inhibition of human RAF1 at 1 uM using MEK1 as substrate in presence of [gamma33P]-ATP by HotSpot assay relative to control
[19] = target: Ribosomal protein S6 kinase beta-2 (Homo sapiens) (UniProt Q9UBS0); experiment: Inhibition of human RPS6KB2 at 1 uM using KKRNRTLTK as substrate in presence of [gamma33P]-ATP by HotSpot assay relative to control
[20] = target: SRSF protein kinase 2 (Homo sapiens) (UniProt P78362); experiment: Inhibition of human SRPK2 at 1 uM using GRSRSRSRSR as substrate in presence of [gamma33P]-ATP by HotSpot assay relative to control
[21] = target: SRSF protein kinase 3 (Homo sapiens) (UniProt Q9UPE1); experiment: Inhibition of human SRPK3 at 1 uM using GRSRSRSRSR as substrate in presence of [gamma33P]-ATP by HotSpot assay relative to control
[22] = target: Tyrosine-protein kinase ZAP-70 (Homo sapiens) (UniProt P43403); experiment: Inhibition of human ZAP70 at 1 uM using MBP as substrate in presence of [gamma33P]-ATP by HotSpot assay relative to control
[23] = Average plasma concentration in CB-17/SCID mouse at 25 mg/kg administered once a day for 4 days by LC-MS/MS analysis; type: ADME, organism-based; conditions: in vivo, 96 h, time 4 day
[24] = Average plasma concentration in human at 90 mg administered once a day; type: ADME; conditions: in vivo
DEL = conditions: time 72 hrs
[25] = system: EML4-ALK (Homo sapiens), Q9UM73+Q9HC35 [F1174L]; conditions: BaF3, dose 500.0 nmol/L, time 3-5 weeks
[26] = system: EML4-ALK (Homo sapiens), Q9UM73+Q9HC35 [L1152R]; conditions: BaF3, dose 500.0 nmol/L, time 3-5 weeks
[27] = system: EML4-ALK (Homo sapiens), Q9UM73+Q9HC35 [D1203N]; conditions: BaF3, dose 500.0 nmol/L, time 3-5 weeks
in vitro = conditions: mouse, BaF3 cells

## COc1cc(N2CCC(N3CCN(C)CC3)CC2)ccc1Nc1ncc(Cl)c(Nc2ccccc2P(C)(C)=O)n1 [BRIGATINIB]
[1]
  inhibition: < 90%
Insulin receptor
  IC50: 0.16 µM
[2]
  IC50: 0.024 µM
[3]
  IC50: 0.088 µM
[4]
  IC50: 0.338 µM
[5]
  inhibition: < 90%
[6]
  inhibition: < 90%
[7]
  inhibition: < 90%
[8]
  inhibition: < 90%
[9]
  inhibition: < 90%
[10]
  inhibition: < 90%
[11]
  inhibition: < 90%
[12]
  inhibition: < 90%
[13]
  inhibition: < 90%
[14]
  inhibition: < 90%
[15]
  inhibition: < 90%
[16]
  inhibition: < 90%
[17]
  inhibition: < 90%
[18]
  inhibition: < 90%
[19]
  inhibition: < 90%
[20]
  inhibition: < 90%
[21]
  inhibition: < 90%
[22]
  inhibition: < 90%
[23]
  Cave: 0.844 µM
[24]
  Cave: 0.582 µM
DEL
  GI50: 0.031 µM
[25]
  inhibition: Active
[26]
  inhibition: Active
[27]
  inhibition: Active
In vitro
  IC50 at 72 h: 3.21 µM
